Measured values published in article PMC4046262 (Scientific Reports, 2014).

Columns and labels:
[1] = molecular target: full-length (wild-type) AtCRY1 (Arabidopsis thaliana, UniProt Q43125); settings: FAD-bound full-length protein; details only in supplement
AtCRY1 PHR = AtCRY1 PHR (Arabidopsis thaliana, UniProt Q43125); test: biochemical
Chain of AtCRY1 PHR (Q43125 1-509): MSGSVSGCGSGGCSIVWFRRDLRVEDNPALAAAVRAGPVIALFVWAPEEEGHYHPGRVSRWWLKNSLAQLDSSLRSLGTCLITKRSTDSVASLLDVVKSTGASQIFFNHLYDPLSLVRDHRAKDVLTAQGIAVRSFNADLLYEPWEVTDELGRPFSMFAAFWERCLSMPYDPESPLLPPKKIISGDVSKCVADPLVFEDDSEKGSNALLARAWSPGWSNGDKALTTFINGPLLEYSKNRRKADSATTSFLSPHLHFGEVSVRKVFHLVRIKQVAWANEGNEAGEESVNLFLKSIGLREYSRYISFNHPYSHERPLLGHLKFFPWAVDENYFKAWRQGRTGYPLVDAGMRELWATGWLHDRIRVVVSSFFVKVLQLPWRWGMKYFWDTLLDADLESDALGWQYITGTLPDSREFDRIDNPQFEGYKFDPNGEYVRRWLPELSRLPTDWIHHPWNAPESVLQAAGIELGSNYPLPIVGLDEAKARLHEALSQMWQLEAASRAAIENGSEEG

Chain of full-length (wild-type) AtCRY1 (Q43125 whole entry): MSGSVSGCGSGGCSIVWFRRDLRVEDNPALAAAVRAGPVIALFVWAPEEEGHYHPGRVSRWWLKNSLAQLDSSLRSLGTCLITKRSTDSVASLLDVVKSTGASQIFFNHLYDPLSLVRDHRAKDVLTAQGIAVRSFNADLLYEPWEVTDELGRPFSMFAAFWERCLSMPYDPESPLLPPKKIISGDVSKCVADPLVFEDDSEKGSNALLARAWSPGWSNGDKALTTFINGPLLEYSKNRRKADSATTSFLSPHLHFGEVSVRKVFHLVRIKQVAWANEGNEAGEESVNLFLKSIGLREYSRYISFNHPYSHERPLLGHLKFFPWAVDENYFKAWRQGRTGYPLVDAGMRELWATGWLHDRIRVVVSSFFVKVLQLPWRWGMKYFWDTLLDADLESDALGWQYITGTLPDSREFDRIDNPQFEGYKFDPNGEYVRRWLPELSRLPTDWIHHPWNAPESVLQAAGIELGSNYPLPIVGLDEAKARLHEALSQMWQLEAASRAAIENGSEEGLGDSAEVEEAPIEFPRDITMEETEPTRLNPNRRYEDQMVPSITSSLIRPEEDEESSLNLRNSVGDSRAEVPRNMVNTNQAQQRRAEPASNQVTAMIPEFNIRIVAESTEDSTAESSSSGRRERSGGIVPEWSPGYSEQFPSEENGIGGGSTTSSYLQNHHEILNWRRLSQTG

Kd (AtCRY1 PHR): 1400 ± 600 nM
SMILES: Nc1ncnc2c1ncn2[C@@H]1O[C@H](COP(=O)(O)OP(=O)(O)OP(=O)(O)O)[C@@H](O)[C@H]1O [ATP]
UV-Vis and transient absorption with ATP (control experiments) [1]: we have not found any significant differences in their photoreactions
